Source: US10413518B2, “CYP450 lipid metabolites reduce inflammation and angiogenesis” (Massachusetts Eye and Ear Infirmary, priority 2013, dated 2019)

How the values were obtained:
[1] = tested on: peripheral blood leukocytes (PBLs) on P-selectin and ICAM-1; assay: Autoperfused microflow chamber assay, chamber coated with P-selectin and ICAM-1; assay type: in vivo; details: metabolite administered to mice with laser-induced CNV; for Leucocyte rolling: FIGS. 9A-D
Protocol: Autoperfused microflow chamber assay. Leukocyte rolling velocity was analyzed using the autoperfused microflow chamber assay.^33,43 In brief, translucent microchambers (0.4×0.04×50 mm; VitroCom) were coated overnight at 4° C. with either recombinant murine P-selectin, or combination P-selectin and ICAM1 (R&D Systems) at a concentration of 5 μg/ml each. The microchambers were then connected at both ends to biocompatible polyester tubing (PE10, Becton Dickinson). Thereafter, both the tubing and microchamber were incubated with 0.1% bovine serum albumin (Sigma-Aldrich) for 1 h to block nonspecific leukocyte interaction with their inner surfaces. The free ends of the tubing were then connected microsurgically to the right carotid artery and left jugular vein of an anesthetized mouse. In this system, blood flows from the carotid artery into the biocompatible inlet tubing, passes through the microchamber, and reenters the animal's body via the outlet tubing and jugular vein. The rate of blood flow is regulated by adjustment of the diameter of the inlet tubing with a screw valve. Microtransducers (Harvard Apparatus) attached to the chamber by three-way connectors embedded before and after the microchamber allow the continuous measurement of blood pressure. The analog output of the microtransducers unit was digitalized with an A/D converter (ML785 PowerLab/8SP, ADInstruments) connected to a PC computer running CHART V7 software (ADInstruments). The measured values at the inlet and outlet of the microchamber were used to calculate the pressure drop (ΔP). […] Ten different fields of view were recorded for at least 30 seconds. Leukocyte rolling velocity was determined from the displacement of individual cells interacting with the chamber surface over time (Δd/Δt). The displacement of leukocytes was determined using image J software 1.46 (NIH). Flux was defined as the number of interacting leukocytes per field of view, averaged over 10 independent field of views. To account for the hemodynamic conditions within the chamber, the blood pressure before the inlet and after the outlet of the chamber was measured, from which the drop of pressure Δp and the shear stress were derived

laser-induced CNV [2] = assay: Laser-induced CNV, lesion size in choroidal flat-mounts stained with isolectin B4; assay type: in vivo, mice; details: 7 days after CNV induction; for Protection from laser-induced CNV (choroidal flatmount): intraperitoneal daily, 5 or 50 μg/kg/day, vs vehicle
Protocol: (§1) Laser-induced model of CNV. Laser photocoagulation was performed 2 weeks after the onset of feeding with the ω-3 or ω-6 LCPUFA diets with the use of a 532-nm laser (Oculight GLx Laser System, IRIDEX) attached to a slitlamp, with a coverslip being used to applanate the cornea in order to afford a view of the posterior pole of the eye. Four lesions located at the 3, 6, 9, and 12 o'clock meridians centered on the optic nerve (size and leakage studies) or 10 lesions (protein and mRNA analysis) were induced in both eyes with the same settings: spot size of 100 μm, pulse duration of 0.1 s, and laser power of 100 mW.^25 The lesions were located two or three disc diameters from the optic nerve. Laser-induced disruption of Bruch's membrane was identified by the appearance of a bubble at the site of photocoagulation. […] One investigator executed all laser photocoagulation.
Choroid flat-mount preparation. For evaluation of the size of CNV lesions, mice were anesthetized with Avertin (Sigma) and sacrificed by cervical dislocation at 5 or 7 days after laser photocoagulation. The eyes were removed and fixed in 4% paraformaldehyde for 60 min at room temperature, the cornea and lens were removed, and the entire retina was carefully dissected from the eyecup. Radial cuts (average, eight) were made from the edge of the eyecup to the equator, and the preparation was then washed with ice-cold PBS containing 0.3% Tween 20.^41 For visualization of vessels, the eyecup was stained overnight at room temperature with Alexa Fluor 488—conjugated Griffonia (Bandeiraea) simplicifolia isolectin B4 (Invitrogen) at a dilution of 1:100. The eyecup was flat-mounted on Superfrost/Plus microscope slides (Fisher) in SlowFade Antifade reagent (Invitrogen) with the sclera facing down and the choroid facing up. Fluorescence images of choroidal flat-mounts were captured with a Zeiss AxioCam MRm camera and Zeiss AxioObserver.Z1 microscope. The CNV area was measured with the use of Image J software.

CD11b = assay: Flow cytometric analysis of CD11b on PBLs; assay type: in vivo, mice; details: metabolite administered, laser-induced CNV model
Protocol: (§2) Isolation of PBLs for flow cytometric analysis. Blood freshly collected from the mouse heart with an EDTA-treated syringe was incubated for 30 min on ice with phycoerythrin-conjugated rat monoclonal antibodies to CD11b (M1/70, BD Biosciences) or to CD18 (C71/16, BD Biosciences), or with isotype control antibodies, at a ratio of 1 μg per 1×10^6 total cells. Red blood cells were lysed with the use of Easy-Lyse (Leinco Technologies), and the remaining cells were isolated by centrifugation and resuspended in PBS on ice for immediate flow cytometric analysis. PBLs were gated according to their characteristic forward and side scatter with the use of a Cytomics FC500 instrument (Beckman Coulter), and data were analyzed with FlowJo 10.0 software […].

laser-induced CNV [3] = assay: Laser-induced CNV, cross-sectional lesion area by SD-OCT; assay type: in vivo, mice; details: 7 days after CNV induction; for Protection from laser-induced CNV (SD-OCT): intraperitoneal daily, 5 or 50 μg/kg/day, vs vehicle
Protocol: as §1
Spectral domain optical coherence tomography (SD-OCT). SD-OCT was performed with a Bioptigen system at 5 and 7 days after laser photocoagulation. Mice were anesthetized with Avertin (Sigma) and positioned on a custom cassette that allowed three-dimensional free rotation for alignment of the eye for imaging. Hydration with normal saline was used to preserve corneal clarity. The B-scan were performed with 100 horizontal, raster, and consecutive B-scan lines, each one composed of 1000 A-scans. The area size was 1.4 by 1.4 mm. The software was able to generate an en face fundus image with the reflectance information obtained from the OCT sections (volume intensity projection), so that a point-to-point correlation between OCT and fundus position was possible and accurate. For evaluation of the cross-sectional size of each lesion in OCT images, the sections passing through the center of the CNV were chosen. […] We narrowed and positioned it to the level of the retinal pigment epithelium—choroid complex, so that the area of the retinal pigment epithelium—Bruch's membrane rupture was readily identifiable in the fundus image as a hyporeflective spot.^25

laser-induced CNV [4] = assay: Laser-induced CNV, vascular leakage by fluorescein angiography; assay type: in vivo, mice; details: 7 days after CNV induction; for Vascular leakage after CNV induction: intraperitoneal daily, 5 or 50 μg/kg/day, vs vehicle
Protocol: as §1
Fluorescein angiography. Fluorescein angiography was performed with a camera and imaging system (TRC 50 VT camera and IMAGEnet 1.53 system,
Topcon) at 5 and 7 days after laser photocoagulation. Photographs were captured with a 20-diopter lens in contact with the fundus camera lens after intraperitoneal injection of 0.1 ml of 2% fluorescein sodium (Akorn). […] Lesions were graded according to a previously established scheme as follows: 0 (not leaky), faint hyperfluorescence or mottled fluorescence without leakage; 1 (questionable leakage), hyperfluorescent lesion without progressive increase in size or intensity; 2A (leaky), hyperfluorescence increasing in intensity but not in size; 2B (clinically significant leakage), hyperfluorescence increasing in intensity and in size.^42

PPARγ = PPARγ activity in retinal nuclear extracts (ELISA-based TransAM kit); assay type: in vivo; details: ω-3-fed mice, IP daily 1 mg/kg, 7 days after CNV induction
Protocol: Measurement of PPARγ activity. The retinas (n=8) of mice were pooled to reduce biological variability and were homogenized in an ice-cold hypotonic buffer (ActiveMotif) for preparation of a nuclear fraction. The nuclear extract (20 μg of protein) was assayed for PPARγ activity with the use of an ELISA-based TransAM kit (ActiveMotif).

CD18 = assay: Flow cytometric analysis of CD18 on PBLs; assay type: in vivo, mice; details: metabolite administered, laser-induced CNV model
Protocol: as §2

[5] = ω-3 LCPUFA diet, IP daily 1 mg/kg

Compound	Leucocyte rolling [1]	Protection from laser-induced CNV (choroidal flatmount) (laser-induced CNV [2])	Systemic leukocyte recruitment during CNV [1]	Protection from laser-induced CNV (SD-OCT) (laser-induced CNV [3])	Vascular leakage after CNV induction (laser-induced CNV [4])	also measured
CCCCC/C=C\C/C=C\CC1OC1C/C=C\CCCC(=O)O (stereo not shown) [8,9-EET, reference compound]	increased leucocyte rolling					
CCCCC/C=C\C[C@H]1O[C@H]1C/C=C\C/C=C\CCCC(=O)O [11,12-EET, reference compound]	increased leucocyte rolling					
CCC1OC1CC=CCC=CCC=CCC=CCC=CCCC(=O)O (stereo not shown) [19,20-EDP, 19,20-epoxydocosapentaenoic acid]	decreased rolling	significant protection	reduces	significant protection	significant protection	CD11b in peripheral blood leukocytes (CD11b): suppresses
O=C(Nc1ccccc1)c1cc([N+](=O)[O-])ccc1Cl [GW9662, reference compound]						Effect on the protective effects of ω3-LCPUFAs on CNV size (choroidal flat-mount) (laser-induced CNV [2]; [5]): significantly reduces; Effect on the protective effects of ω3-LCPUFAs on CNV size (SD-OCT) (laser-induced CNV [3]; [5]): significantly reduces; Activity of PPARγ in the retina (PPARγ): significantly reduces; Effect on the protective effects of ω3-LCPUFAs on leakage (laser-induced CNV [4]; [5]): significantly reduces
CCCCCC1OC1C/C=C\C/C=C\C/C=C\CCCC(=O)O (stereo not shown) [14,15-EET, reference compound]	increased leucocyte rolling					
CCC1OC1C/C=C\C/C=C\C/C=C\C/C=C\CCCC(=O)O (stereo not shown) [17,18-EEQ, 17,18-epoxyeicosatetraenoic acid]	decreased rolling	significant and dose-dependent protection	reduces	significant and dose-dependent protection	significantly decreased	CD18 in peripheral blood leukocytes (CD18): suppresses
